Read-outs that look alike come from different tables or passages of the source.
Columns and labels:
HCT115 = system: HCT115; design: method as in PMID 28759878; details: colon cancer cell line; cited from earlier work
CHO = assay: MTT cytotoxicity assay, CHO cells; assay type: cell-based; details: Cricetulus griseus, Chinese hamster ovarian cell line, means ± SDs of three independent experiments, read-out: IC50 ± SD, Non-Prostate Cells, CHO
Protocol: (§1) All the cells were cultured as adherent monolayers in culture flasks, and were used to determine the anti-cancer efficacy of RP-010. DMEM supplemented with 4.5 g of glucose, 10% fetal bovine serum (FBS) and 1% penicillin/streptomycin, was used to augment cell growth. Finally, the cells were incubated and grown in a humidified incubator containing 5% CO2 at 37 °C [50]. […] Cells were obtained from frozen stocks and cell passaging (up to P4) was performed at 80% cell confluency, using PBS and trypsin + 2.2-mM EDTA.
(§2) MTT assays were used to determine the cytotoxicity of the RP compounds, to PC cell lines, as previously described.

DU145 [1] = assay: Wound healing assay, DU145; assay type: cell-based; details: 0.5, 1, 2 or 4 µM, 12-48 h, vs vehicle
Protocol: This assay was conducted using DU145 and PC-3 cells as previously described. Upon confluence, 200 μL sterile tips were used to create a wound by gently scratching the complete cell monolayer. Sterile PBS was used to wash the cells several times to remove any floating cells. Different concentrations of the test compound were prepared in the culture media and added immediately after wound formation. The closure of the wound was observed by taking pictures at different time points by the EVOS microscope (Thermo Fisher Scientific, Wayne, MI, USA). Finally, the area of the wounds, at different time points, was calculated using Image J software (NIH, Bethesda, MD, USA).

[2] = system: Bak, Bax, Bcl2, caspase 3, PARP, cytochrome c in DU145 cells; assay: Western analysis of apoptosis-regulating proteins, DU145; assay type: cell-based; details: 1 or 2 μM, 24 h
Protocol: DU145 cells were incubated with RP-010 ((1 or 2 µM) for 24 h. Thereafter, the cells were subjected to a two-step lysis process to extract and separate the cytosolic and the nuclear proteins, as previously described. Next, protein separation for both cytosolic and nuclear proteins was achieved by electrophoresing the samples through acrylamide SDS-PAGE gels, followed by transfer to a PVDF membrane. The PVDF membrane was then incubated overnight with the following primary antibodies: rabbit α-tubulin, 1:4000 dilution, rabbit BAX (1:1000), rabbit BAK (1:1000), rabbit cytochrome c (1:1000), rabbit PARP (1:5000), rabbit β-Catenin (1:4000), rabbit DVL3 (1:4000), rabbit LRP-6 (1:1000), rabbit P-LRP-6 (1:1000), rabbit c-Myc (1: 4000), rabbit cyclin B1 (1:2000), rabbit Wnt 5a (1:1000), rabbit naked 1 and naked 2 (1:1000), mouse E-cadherin (1:4000), mouse N-cadherin (1:4000), mouse β-actin (1:5000) and rabbit histone (1:3000). Finally, protein expression levels were determined as described previously. In the Figure 3, Figure 5 and Figure S8, the protein blots above β-actin were cytosolic lysates, while all the proteins below β-actin and above histones (loading controls) were nuclear lysates.

DU145 [3] = assay: Colony formation assay, DU145; assay type: cell-based; details: 1 or 2 µM, vs vehicle
Protocol: This assay was performed as previously described. The DU145 and PC-3 cells were incubated with RP-010 (1 or 2 µM) for 24 h. […], the medium was discarded and cells were trypsinized with 0.25% trypsin, 2.21-mM EDTA, and then harvested, counted, and reseeded in 6-well plates at a low density (500 cell/well). The cells were allowed to form colonies for 10–14 days at 37 °C, with the medium being changed every other day. Subsequently, methanol was used to fix the colonies formed in each plate, followed by staining the colonies with 0.1% crystal violet dye for 30 min. Finally, colonies were viewed and counted under an EVOS microscope (Themo Fisher Scientific, Wayne, MI, USA). The colony formation rate equation was applied for each compound: Colony formation rate = the number of colonies/numbers of seeded cells × 100%.

DU145 [4] = assay: MTT cytotoxicity assay, DU145 prostate cancer cells; assay type: cell-based; details: means ± SDs of three independent experiments, read-out: IC50 ± SD, Prostate Cancer Cells, DU145
Protocol: as §1, §2

CRL-1459 = assay: MTT cytotoxicity assay, CRL-1459 normal colon epithelial cells; assay type: cell-based; details: Homo sapiens, normal colon epithelial cell line, means ± SDs of three independent experiments, read-out: IC50 ± SD, Non-Prostate Cells, CRL-1459
Protocol: as §1, §2

zebrafish = assay: Zebrafish toxicity model; assay type: in vivo
Protocol: The zebrafish toxicity studies were conducted as previously described. Five days-post fertilization larvae (5 fish/well) were exposed to vehicle or RP-010 (0, 0.3, 1, 3, 6, and 10 µM). Subsequently, the zebrafish were observed visually, and pictures were taken at 24- and 48-hour post exposure (hpe). […] The zebrafish studies were approved by the University of Toledo Institutional Animal Care and Use Committee (#105414, approved on 10/2018).

DU145 [5] = assay: DAPI staining of nuclear changes, DU145; assay type: cell-based
Protocol: The nuclear changes in DU145 and PC-3 cells lines produced by RP-010 (1, 2 and 4 µM) incubation at 24 or 48 h were determined using DAPI staining. The cells were seeded on culture cover glasses in 6-well plates, and allowed to grow overnight. The cells were then incubated with RP-010, for an additional 24 h, at 37 °C. The incubated cells were fixed with 4% paraformaldehyde, followed by permeabilization with 1× PBS/0.3% Triton X-100 for 25 min. Finally, DAPI stain was added, and cells were photographed using the EVOS microscope.

PC-3 = assay: Transwell migration assay, PC-3; assay type: cell-based; details: 24 h
Protocol: The assay was done as previously described. The effect of RP-010, (0.5, 1 or 2 µM) on the migration of PC cells was tested using 24 trans-well inserts with an […] pore size. The addition of the insert to the well forms two chambers (upper and lower), where the upper chamber was used to grow the cells on the porous membrane. The lower chamber was filled with 600-μL cell-free DMEM medium. 200-μL of the cell suspension was added to each insert, and cells allowed to attach for 1 h. The test compound was added in different concentrations and incubated with the cells for 24 h. […] Finally, the remaining migrated cells were fixed by methanol, and stained with 0.1% crystal violet dye and counted with an EVOS microscope. The number of migrated cells was counted for the cultures incubated with vehicle or RP-010.

COc1ccc(-c2nc3sc4c(c3c(=O)[nH]2)CCCC4)cc1 [RP10]
IC50 (HCT115): 0.7 ± 0.2 µM | IC50 (CHO): 14 ± 1.3 µM | Wound healing (cell migration) (DU145 [1]): significant decrease | Expression of Bax [2]: did not significantly alter | Levels of cytochrome c [2]: did not significantly alter | Levels of total cytosolic PARP [2]: significantly reduced | Cleavage of caspase-3 ([2]; p < 0.001): significantly increased | Expression of Bcl2 ([2]; p < 0.01): significantly downregulated | Levels of cleaved nuclear PARP ([2]; p < 0.01): increased | Levels of cleaved cytosolic PARP ([2]; p < 0.05): significantly increased | Expression level of Bak, increase ([2]; vs vehicle, p < 0.01): ≥ 2 fold | Size of the colonies (DU145 [3]): significantly decreased | Colony formation (DU145 [3]; p < 0.01): significantly decreased | IC50 (DU145 [4]; Homo sapiens, DU-145, MTT assay): < 1 µM | IC50 (DU145 [4]; MTT assay): 0.5 ± 0.2 µM | IC50 (CRL-1459): 73 ± 5.3 µM | Concentration well tolerated / without significant toxic effects (zebrafish; zebrafish): up to 6 µM | Mortality (zebrafish; zebrafish larvae, 0.3, 1, 3, 6 or 10 µM, 24 and 48 h exposure): did not significantly increase | Nuclear morphology (DAPI) (DU145 [5]; 1 µM, 24 h): produced multinucleated cells | Nuclear morphology (DAPI) (DU145 [5]; 1, 2 or 4 µM, 48 h): primarily produced early stage apoptotic nuclear morphology | Nuclear morphology (DAPI) (DU145 [5]; 2 or 4 µM, 24 h): significantly increased numbers of highly condensed, fragmented nuclear chromatin | Transwell migration (PC-3; 0.5 μM): not significantly altered | Transwell migration (PC-3; 1 or 2 μM, p < 0.05): significantly decreased

— PMC6563099, “Novel Thienopyrimidine Derivative, RP-010, Induces β-Catenin Fragmentation and Is Efficacious against Prostate Cancer Cells” (Cancers, 2019)
